Assay results as given in ChEMBL document CHEMBL1201862, “PubChem BioAssay data set” (2004).
Structures can show the parent of a compound that is named as a salt.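 Values below derive from 48-hour exposures of cells grown in 96-well plates, with endpoints linearly interpolated between the two concentrations bracketing the appropriate inhibition level. Abbreviation: GI50, concentration required for 50% inhibition of growth.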 Activity calls are given as the source filed them. No stated cut-off is given here; in the data, active = GI50 up to about 1.1 µM and inactive = higher.

Key:
Experiment in all cases: inhibition of tumour cell growth, NCI panel, 48 h
SK-MEL-28 = tested on: SK-MEL-28
KM12 = tested on: KM12
RXF 393 = tested on: RXF 393
SF-295 = tested on: SF-295
NCI-H23 = tested on: NCI-H23
MCF7 = tested on: MCF7
HT-29 = tested on: HT-29
MDA-MB-231 = tested on: MDA-MB-231
SK-MEL-2 = tested on: SK-MEL-2
SF-268 = tested on: SF-268
OVCAR-3 = tested on: OVCAR-3
HCT-116 = tested on: HCT-116
NCI-H460 = tested on: NCI-H460
SNB-75 = tested on: SNB-75
SN12C = tested on: SN12C
CAKI-1 = tested on: CAKI-1
U-251 = tested on: U-251
Hs-578T = tested on: Hs-578T
SF-539 = tested on: SF-539
HCC 2998 = tested on: HCC 2998

Row | Structure (SMILES) | GI50 (SK-MEL-28) | GI50 (KM12) | GI50 (RXF 393) | GI50 (SF-295) | GI50 (NCI-H23) | GI50 (MCF7) | GI50 (HT-29) | GI50 (MDA-MB-231) | GI50 (SK-MEL-2) | GI50 (SF-268) | GI50 (OVCAR-3) | GI50 (HCT-116) | GI50 (NCI-H460) | GI50 (SNB-75) | GI50 (SN12C) | GI50 (CAKI-1) | GI50 (U-251) | GI50 (Hs-578T) | GI50 (SF-539) | GI50 (HCC 2998)
1 | O=C(c1cc(Cl)cc(Cl)c1)N(C(=S)OC12CC3CC(CC(C3)C1)C2)c1ccccc1 | 59.4 µM (inactive) | 40.3 µM (inactive) | 41.2 µM (inactive) | 34.5 µM (inactive) | 36.1 µM (inactive) | 30.1 µM (inactive) | 39.4 µM (inactive) | 38.6 µM (inactive) | 19.4 µM (inactive) | 52.8 µM (inactive) | 45.3 µM (inactive) | 28.1 µM (inactive) | 35.3 µM (inactive) | 61 µM (inactive) | 36.5 µM (inactive) | 42.1 µM (inactive) | 33 µM (inactive) | 48.9 µM (inactive) | 40 µM (inactive) | 33.8 µM (inactive)
2 | NCCSSCCN [CYSTAMINE HYDROCHLORIDE] | > 100 µM (inactive) | > 100 µM (inactive) | > 100 µM (inactive) | > 100 µM (inactive) | > 100 µM (inactive) | > 100 µM (inactive) | > 100 µM (inactive) | > 100 µM (inactive) | > 100 µM (inactive) | > 100 µM (inactive) | > 100 µM (inactive) | > 100 µM (inactive) | > 100 µM (inactive) | > 100 µM (inactive) | > 100 µM (inactive) | > 100 µM (inactive) | > 100 µM (inactive) | > 100 µM (inactive) | > 100 µM (inactive) | > 100 µM (inactive)
3 | COc1c2ccoc2cc2oc(=O)ccc12 [BERGAPTEN] | > 100 µM (inactive) |  | > 100 µM (inactive) | > 100 µM (inactive) | > 100 µM (inactive) | > 100 µM (inactive) | > 100 µM (inactive) | > 100 µM (inactive) | > 100 µM (inactive) | > 100 µM (inactive) | > 100 µM (inactive) | > 100 µM (inactive) | > 100 µM (inactive) | 89.1 µM (inactive) | > 100 µM (inactive) | > 100 µM (inactive) | 67.9 µM (inactive) | 65.5 µM (inactive) | > 100 µM (inactive) | > 100 µM (inactive)
4 | Cc1cc(N(CCOS(C)(=O)=O)CCOS(C)(=O)=O)ccc1/C=N/c1ccc(-c2csc(-c3ccccc3)n2)c(Cl)c1 | 21.6 µM (inactive) | 11.2 µM (inactive) | 2.12 µM (inactive) | 2.36 µM (inactive) | 5.98 µM (inactive) | 4.27 µM (inactive) | 9.91 µM (inactive) | 20.6 µM (inactive) | 21 µM (inactive) | 8.63 µM (inactive) | 8.65 µM (inactive) | 12.8 µM (inactive) | 0.0647 µM (active) | 1.8 µM (inactive) | 8.81 µM (inactive) | 0.179 µM (active) | 16.1 µM (inactive) | 18 µM (inactive) | 3.94 µM (inactive) | 2.93 µM (inactive)
5 | CS(=O)(=O)Nc1ccc2c(c1)N(S(C)(=O)=O)CC2CCl (configuration not stated) | > 100 µM (inactive) | > 100 µM (inactive) | > 100 µM (inactive) | > 100 µM (inactive) | > 100 µM (inactive) | > 100 µM (inactive) | > 100 µM (inactive) | > 100 µM (inactive) | > 100 µM (inactive) | > 100 µM (inactive) | > 100 µM (inactive) | > 100 µM (inactive) | > 100 µM (inactive) | > 100 µM (inactive) | > 100 µM (inactive) | > 100 µM (inactive) | > 100 µM (inactive) | > 100 µM (inactive) | > 100 µM (inactive) | > 100 µM (inactive)
6 | CC(=O)Nc1ccc2c3c(cc(O)c2c1)N(C(=O)CCCCC(=O)N1CC(CCl)c2c1cc(O)c1cc(NC(C)=O)ccc21)CC3CCl (configuration not stated) | 0.27 µM (active) | 0.505 µM (active) | 0.153 µM (active) | 0.151 µM (active) | < 0.0161 µM (active) | < 0.01 µM (active) | 0.301 µM (active) | 0.29 µM (active) | 0.144 µM (active) | < 0.0141 µM (active) | 0.209 µM (active) | 0.125 µM (active) | < 0.01 µM (active) | < 0.0395 µM (active) | 0.154 µM (active) | 0.745 µM (active) | 0.0285 µM (active) | 0.423 µM (active) | 0.0527 µM (active) | 0.21 µM (active)
7 | C[C@@H](CCO)OC1OC(COC(=O)C(C)(C)C)C(OC(=O)C(C)(C)C)C(OC(=O)C(C)(C)C)C1OC(=O)C(C)(C)C (some centres not stated) | 21.9 µM (inactive) | > 10 µM (inactive) | 7.46 µM (inactive) | 4.13 µM (inactive) | > 100 µM (inactive) | 15.1 µM (inactive) | 13.6 µM (inactive) | 3.4 µM (inactive) | 43.6 µM (inactive) | 50.6 µM (inactive) | 86.7 µM (inactive) | 18 µM (inactive) | 16.1 µM (inactive) | 32.1 µM (inactive) | 22.1 µM (inactive) | 5.97 µM (inactive) | 16.7 µM (inactive) | 20.7 µM (inactive) | 33.4 µM (inactive) | 16.6 µM (inactive)
8 | CCOC(=O)Nn1c(C)nnc1CC#N | > 100 µM (inactive) | > 100 µM (inactive) | > 100 µM (inactive) | > 100 µM (inactive) | > 100 µM (inactive) | > 100 µM (inactive) | > 100 µM (inactive) | > 100 µM (inactive) | > 100 µM (inactive) | > 100 µM (inactive) | > 100 µM (inactive) | > 100 µM (inactive) | > 100 µM (inactive) | > 100 µM (inactive) | > 100 µM (inactive) | > 100 µM (inactive) | > 100 µM (inactive) | > 100 µM (inactive) | > 100 µM (inactive) | > 100 µM (inactive)
9 | Cc1cc2cc3c(cc2c(-c2ccc([N+](=O)[O-])cc2)n1)OCO3 | 41.1 µM (inactive) | 25.1 µM (inactive) | 32.7 µM (inactive) | 50 µM (inactive) | 45 µM (inactive) | 37.8 µM (inactive) | 56.8 µM (inactive) | 18.6 µM (inactive) | 39.1 µM (inactive) | 34.6 µM (inactive) | 55.2 µM (inactive) | 36.8 µM (inactive) | 29.7 µM (inactive) | 19.7 µM (inactive) | 28.7 µM (inactive) | 38.4 µM (inactive) | 23.7 µM (inactive) | 23.3 µM (inactive) | 22.6 µM (inactive) | 74 µM (inactive)
10 | COC(=O)C(CCSc1ccccc1)C(=O)OC | > 100 µM (inactive) | > 100 µM (inactive) | > 100 µM (inactive) | > 100 µM (inactive) | > 100 µM (inactive) | > 100 µM (inactive) | > 100 µM (inactive) | > 100 µM (inactive) | > 100 µM (inactive) |  | > 100 µM (inactive) | > 100 µM (inactive) | > 100 µM (inactive) | > 100 µM (inactive) | > 100 µM (inactive) | > 100 µM (inactive) | > 100 µM (inactive) | 1.58 µM (inactive) | > 100 µM (inactive) | > 100 µM (inactive)
11 | O=c1oc2ccccc2c(-c2ccc(O)cc2)c1Oc1ccc(Cl)cc1 | 15.3 µM (inactive) | 26.5 µM (inactive) | 19.4 µM (inactive) | 17 µM (inactive) | 20.7 µM (inactive) | 4.88 µM (inactive) | 20.1 µM (inactive) | 22.4 µM (inactive) | 17.9 µM (inactive) | 23.6 µM (inactive) | 14.9 µM (inactive) | 15.8 µM (inactive) | 20.4 µM (inactive) | 18.7 µM (inactive) | 24 µM (inactive) | 28.8 µM (inactive) | 22.3 µM (inactive) | 16.1 µM (inactive) | 30.4 µM (inactive) | 16.9 µM (inactive)
12 | CN(C)CC/C=C1\c2ccccc2Sc2ccc(Cl)cc21 | 6.21 µM (inactive) | 21 µM (inactive) | 12.5 µM (inactive) | 15.9 µM (inactive) | 15.6 µM (inactive) | 15.1 µM (inactive) | 4.19 µM (inactive) | 13.6 µM (inactive) | 16.1 µM (inactive) | 14.1 µM (inactive) | 13.4 µM (inactive) | 11.6 µM (inactive) | 11.7 µM (inactive) | 12.3 µM (inactive) | 15.2 µM (inactive) | 8.11 µM (inactive) | 12.7 µM (inactive) | 14.4 µM (inactive) | 19 µM (inactive) | 2.22 µM (inactive)
13 | Cc1n(-c2ccccc2)c2c([n+]1Cc1ccc([N+](=O)[O-])cc1)C(=O)c1ccccc1C2=O | 1.81 µM (inactive) | 2.29 µM (inactive) | 7.66 µM (inactive) | 5.45 µM (inactive) | 1.9 µM (inactive) | 1.37 µM (inactive) | 2.38 µM (inactive) | 1.59 µM (inactive) | 1.48 µM (inactive) | 1.75 µM (inactive) | 0.182 µM (active) | 2.02 µM (inactive) | 3.78 µM (inactive) | 3.69 µM (inactive) | 1.64 µM (inactive) | 15.7 µM (inactive) | 1.75 µM (inactive) | 1.78 µM (inactive) | 1.97 µM (inactive) | 2.26 µM (inactive)
14 | Cc1ccc([N+](=O)[O-])cc1S(=O)(=O)Nc1ccc(C2=NOC(c3ccccc3O)C2)cc1 (configuration not stated) | 12.8 µM (inactive) | 3.16 µM (inactive) | 2.26 µM (inactive) | 3.85 µM (inactive) | 10.4 µM (inactive) | 3.33 µM (inactive) | 4.61 µM (inactive) | 4.5 µM (inactive) | 2.74 µM (inactive) | 8.61 µM (inactive) | 3.72 µM (inactive) | 4.54 µM (inactive) | 4.09 µM (inactive) | 3.6 µM (inactive) | 12.3 µM (inactive) | 9.42 µM (inactive) |  | 9.98 µM (inactive) | 4.58 µM (inactive) | 7.01 µM (inactive)
